# Test results taken from patent US11247965B2 (VenatoRx Pharmaceuticals, Inc., priority 2017, dated 2022).
# How the values were obtained:
# [1] = system: HBV replication in HepAD38 cells; assay: Anti-HBV activity in HepAD38 cells, extracellular HBV DNA by QPCR; format: cell-based, HBV (genotype D, serotype ayw); conditions: Hepatitis B virus, HePAD38, 168 h, read-out: Anti-HBV EC50, HepAD38 cells, extracellular HBV DNA by QPCR, 7 days of incubation
# In short: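 Seven-day compound exposure (30 μM down to 10 nM, half-log steps) after tetracycline withdrawal induced HBV replication in HepAD38 cells. Extracellular viral DNA measured by QPCR (copies/mL via standard curve), normalised to DMSO wells; EC50 from 4-parameter non-linear regression.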
# [2] = In vitro cytotoxicity, MTT cell viability assay in HepG2 cells; format: cell-based; conditions: human, Cytotoxicity CC50
# In short: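 HepG2 seeded overnight, then 7-day compound exposure (30 μM–1.0 nM, half-log steps), 37 °C. MTT 3-4 h, DMSO solubilization, A492. % of vehicle → CC50, 4-PL fit.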
SMILES,EC50 [1] [µM],CC50 at 7 days [2] [µM]
"CCn1ccc(C(=O)Nc2ccc(F)c(C)c2)c1C(F)(F)C(=O)NC(C)(C)C [Example 135, 2-(2-(tert-butylamino)-1,1-difluoro-2-oxoethyl)-1-ethyl-N-(4-fluoro-3-methylphenyl)-1H-pyrrole-3-carboxamide]",5 to 30,> 30
"CCC(C)NC(=O)C(F)(F)c1cc(C(=O)Nc2ccc(F)c(Cl)c2)cn1C (stereo not shown) [Example 136, 5-(2-(sec-butylamino)-1,1-difluoro-2-oxoethyl)-N-(3-chloro-4-fluorophenyl)-1-methyl-1H-pyrrole-3-carboxamide]",5 to 30,> 30
"Cn1ccc(C(=O)Nc2ccc(F)c(Cl)c2)c1C(F)(F)C(=O)NC(C)(C)C [Example 137, 2-(2-(tert-butylamino)-1,1-difluoro-2-oxoethyl)-N-(3-chloro-4-fluorophenyl)-1-methyl-1H-pyrrole-3-carboxamide]",< 5,> 30
"Cn1cc(C(=O)Nc2ccc(F)c(Cl)c2)cc1C(F)(F)C(=O)NCCO [Example 138, N-(3-chloro-4-fluorophenyl)-5-(1,1-difluoro-2-((2-hydroxyethyl)amino)-2-oxoethyl)-1-methyl-1H-pyrrole-3-carboxamide]",5 to 30,> 30
"C[C@H](NC(=O)C(F)(F)c1cc(C(=O)Nc2ccc(F)c(Cl)c2)cn1C)C(F)(F)F [Example 140, (S)-N-(3-chloro-4-fluorophenyl)-5-(1,1-difluoro-2-oxo-2-((1,1,1-trifluoropropan-2-yl)amino)ethyl)-1-methyl-1H-pyrrole-3-carboxamide]",< 5,> 30
C[C@H](NC(=O)C(F)(F)c1c(C(=O)Nc2ccc(F)c(Cl)c2)ccn1C)C(F)(F)F [Example 141],5 to 30,> 30
"Cn1cc(C(=O)Nc2ccc(F)c(Cl)c2)cc1C(F)(F)C(=O)N[C@@H]1CCOC1 [Example 142, (R)-N-(3-chloro-4-fluorophenyl)-5-(1,1-difluoro-2-oxo-2-((tetrahydrofuran-3-yl)amino)ethyl)-1-methyl-1H-pyrrole-3-carboxamide]",< 5,> 30
"Cn1ccc(C(=O)Nc2ccc(F)c(Cl)c2)c1C(F)(F)C(=O)N[C@@H]1CCOC1 [Example 143, (R)-N-(3-chloro-4-fluorophenyl)-2-(1,1-difluoro-2-oxo-2-((tetrahydrofuran-3-yl)amino)ethyl)-1-methyl-1H-pyrrole-3-carboxamide]",5 to 30,> 30
"Cn1cc(C(=O)Nc2ccc(F)c(Cl)c2)cc1C(F)(F)C(=O)NOC(C)(C)C [Example 144, 5-(2-(tert-butoxyamino)-1,1-difluoro-2-oxoethyl)-N-(3-chloro-4-fluorophenyl)-1-methyl-1H-pyrrole-3-carboxamide]",< 5,> 30
"Cn1ccc(C(=O)Nc2ccc(F)c(Cl)c2)c1C(F)(F)C(=O)NOC(C)(C)C [Example 145, 2-(2-(tert-butoxyamino)-1,1-difluoro-2-oxoethyl)-N-(3-chloro-4-fluorophenyl)-1-methyl-1H-pyrrole-3-carboxamide]",5 to 30,> 30
"Cn1cc(C(=O)Nc2ccc(F)c(Cl)c2)cc1C(F)(F)C(=O)NC1(C#N)CC1 [Example 146, N-(3-chloro-4-fluorophenyl)-5-(2-((1-cyanocyclopropyl)amino)-1,1-difluoro-2-oxoethyl)-1-methyl-1H-pyrrole-3-carboxamide]",< 5,> 30
"Cn1ccc(C(=O)Nc2ccc(F)c(Cl)c2)c1C(F)(F)C(=O)NC1(C#N)CC1 [Example 147, N-(3-chloro-4-fluorophenyl)-2-(2-((1-cyanocyclopropyl)amino)-1,1-difluoro-2-oxoethyl)-1-methyl-1H-pyrrole-3-carboxamide]",5 to 30,> 30
"Cc1cc(NC(=O)c2ccc(Cl)c(C(F)(F)C(=O)N3CCC(B(O)O)CC3)c2)ccc1F [Example 148, (1-(2-(2-chloro-5-((4-fluoro-3-methylphenyl)carbamoyl)phenyl)-2,2-difluoroacetyl)piperidin-4-yl)boronic acid]",< 5,> 30
"Cc1cc(NC(=O)c2ccc(F)c(C(F)(F)C(=O)NCB3O[C@@H]4C[C@@H]5C[C@@H](C5(C)C)[C@]4(C)O3)c2)ccc1F [Example 149, 3-(1,1-difluoro-2-oxo-2-((((3aS,4S,6S,7aR)-3a,5,5-trimethylhexahydro-4,6-methanobenzo[d][1,3,2]dioxaborol-2-yl)methyl)amino)ethyl)-4-fluoro-N-(4-fluoro-3-methylphenyl)benzamide]",< 5,5 to 30
"Cc1cc(NC(=O)c2ccc(F)c(C(F)(F)C(=O)N[C@H]3CCOB3O)c2)ccc1F [Example 150, (R)-3-(1,1-difluoro-2-((2-hydroxy-1,2-oxaborolan-3-yl)amino)-2-oxoethyl)-4-fluoro-N-(4-fluoro-3-methylphenyl)benzamide]",< 5,> 30
"Cc1cc(NC(=O)c2ccc(F)c(C(Cl)(Cl)C(=O)N3CC=C(B(O)O)CC3)c2)ccc1F [Example 151, (1-(2,2-dichloro-2-(2-fluoro-5-((4-fluoro-3-methylphenyl)carbamoyl)phenyl)acetyl)-1,2,3,6-tetrahydropyridin-4-yl)boronic acid]",< 5,> 30
"Cc1cc(NC(=O)c2ccc(F)c(C(F)(F)C(=O)N3CCC(B(O)O)CC3)c2)ccc1F [Example 152, (1-(2,2-difluoro-2-(2-fluoro-5-((4-fluoro-3-methylphenyl)carbamoyl)phenyl)acetyl)piperidin-4-yl)boronic acid]",< 5,5 to 30
"Cc1cc(NC(=O)c2ccc(F)c(C(F)(F)C(=O)N3CCC[C@H]3B(O)O)c2)ccc1F [Example 153, (R)-(1-(2,2-difluoro-2-(2-fluoro-5-((4-fluoro-3-methylphenyl)carbamoyl)phenyl)acetyl)pyrrolidin-2-yl)boronic acid]",< 5,> 30
"Cc1cc(NC(=O)c2ccc(F)c(C(F)(F)C(=O)N3CC=C(B(O)O)CC3)c2)ccc1F [Example 154, (1-(2,2-difluoro-2-(2-fluoro-5-((4-fluoro-3-methylphenyl)carbamoyl)phenyl)acetyl)-1,2,3,6-tetrahydropyridin-4-yl)boronic acid]",< 5,5 to 30
"Cc1cc(NC(=O)c2ccc(F)c(C(F)(F)C(=O)NCB(O)O)c2)ccc1F [Example 156, ((2,2-difluoro-2-(2-fluoro-5-((4-fluoro-3-methylphenyl)carbamoyl)phenyl)acetamido)methyl)boronic acid]",5 to 30,5 to 30
"Cc1cc(NC(=O)c2cc(C(F)(F)C(=O)NC(C)(C)C)cs2)ccc1F [Example 157, 4-(2-(tert-butylamino)-1,1-difluoro-2-oxoethyl)-N-(4-fluoro-3-methylphenyl)thiophene-2-carboxamide]",5 to 30,5 to 30
"Cc1cc(NC(=O)c2cc(Br)c(C(F)(F)C(=O)NC(C)(C)C)s2)ccc1F [Example 158, 4-bromo-5-(2-(tert-butylamino)-1,1-difluoro-2-oxoethyl)-N-(4-fluoro-3-methylphenyl)thiophene-2-carboxamide]",5 to 30,5 to 30
"Cc1cc(NC(=O)c2ccc(F)c(C(F)(F)C(=O)N3CCC(O)CC3)c2)cc(F)c1F [Example 159, 3-(1,1-difluoro-2-(4-hydroxypiperidin-1-yl)-2-oxoethyl)-N-(3,4-difluoro-5-methylphenyl)-4-fluorobenzamide]",< 5,5 to 30
"Cc1cc(NC(=O)c2ccc(F)c(C(F)(F)C(=O)N3CCC(O)CC3)c2)cc(F)n1 [Example 160, 3-(1,1-difluoro-2-(4-hydroxypiperidin-1-yl)-2-oxoethyl)-4-fluoro-N-(2-fluoro-6-methylpyridin-4-yl)benzamide]",5 to 30,5 to 30
"Cc1cc(NC(=O)c2ccc(F)c(C(F)(F)C(=O)N3CC(F)(F)CC3C(=O)O)c2)ccc1F (stereo not shown) [Example 161, 1-(2,2-difluoro-2-(2-fluoro-5-((4-fluoro-3-methylphenyl)carbamoyl)phenyl)acetyl)-4,4-difluoropyrrolidine-2-carboxylic acid]",5 to 30,> 30
"Cc1cc(NC(=O)c2ccc(F)c(C(F)(F)C(=O)N3CCC(O)C(F)C3)c2)ccc1F (stereo not shown) [Example 162, 3-(1,1-difluoro-2-(3-fluoro-4-hydroxypiperidin-1-yl)-2-oxoethyl)-4-fluoro-N-(4-fluoro-3-methylphenyl)benzamide]",< 5,5 to 30
"Cc1cc(NC(=O)c2ccc(F)c(C(F)(F)C(=O)N3[C@@H]4CC[C@H]3C[C@H](O)C4)c2)ccc1F [Example 163, 3-(1,1-difluoro-2-((1R,3s,5S)-3-hydroxy-8-azabicyclo[3.2.1]octan-8-yl)-2-oxoethyl)-4-fluoro-N-(4-fluoro-3-methylphenyl)benzamide]",< 5,5 to 30
"Cc1cc(NC(=O)c2ccc(F)c(C(F)(F)C(=O)N3CCC(C(N)=O)CC3)c2)ccc1F [Example 164, 1-(2,2-difluoro-2-(2-fluoro-5-((4-fluoro-3-methylphenyl)carbamoyl)phenyl)acetyl)piperidine-4-carboxamide]",< 5,> 30
"Cc1cc(NC(=O)c2cc(C(F)(F)C(=O)NC(C)(C)C)n(C)n2)ccc1F [Example 165, 5-(2-(tert-butylamino)-1,1-difluoro-2-oxoethyl)-N-(4-fluoro-3-methylphenyl)-1-methyl-1H-pyrazole-3-carboxamide]",5 to 30,> 30
